The text below walks through data of US20210228515A1, “BENZOIC ACID OR A SALT AND DERIVATIVE THEREOF FOR USE IN PREVENTING OR TREATING ANTI-N-METHYL-D-ASPARTATE RECEPTOR ENCEPHALITIS” (EXCELSIOR PHARMATECH LABS, priority 2018, published 2021).

A short description of the experiment: Case treatment of a patient with confirmed anti-NMDAR encephalitis. The settings on record: for response to antipsychotics: high doses: aripiprazole 20-30 mg, clozapine 300-500 mg, clozapine 500 mg plus paliperidone 9 mg, before the diagnosis was confirmed. It counts as in vivo.

Turning to `Cc1nc2n(c(=O)c1CCN1CCC(c3noc4cc(F)ccc34)CC1)CCCC2O` (stereo not shown) [paliperidone], the response to antipsychotics entry is “very poor response”.
For `O=C([O-])c1ccccc1.[Na+]` [Sodium benzoate, sodium benzoate], the clinical improvement entry (sodium benzoate 1000 mg per day for 2 months, patient able to return to a normal life) is “obvious clinical improvement”. The “psychotic symptoms including dissociation and agitation” value (sodium benzoate 1000 mg per day for 2 months, patient refractory to antipsychotics, ECT and immunotherapy) is “reduced”.
Consider `O=C1CCc2ccc(OCCCCN3CCN(c4cccc(Cl)c4Cl)CC3)cc2N1` [aripiprazole], for which the response to antipsychotics entry is reported as “very poor response”.
